From patent US20250109118A1, “HETEROCYCLIC COMPOUNDS AS SHP2 INHIBITORS, COMPOSITIONS COMPRISING THE HETEROCYCLIC COMPOUND, AND METHODS OF USE THEREOF” (JS INNOMED HOLDINGS LTD., priority 2021, published 2025)

Legend:
[1] = biological target: T1, SHP2 (PTPN11/SHP2-FL) (Homo sapiens, UniProt Q06124); assay: SHP2 biochemical assay (DiFMUP prompt fluorescence); details: 0.5 nM SHP2, 0.35 μM activating peptide, DiFMUP 100 μM; read-out: SHP2 bichemical activity (IC50)
T1 construct: SHP2 (PTPN11/SHP2-FL, RBC produced, no cat #); purchased RBC no cat #
T1 sequence (Q06124 1-593): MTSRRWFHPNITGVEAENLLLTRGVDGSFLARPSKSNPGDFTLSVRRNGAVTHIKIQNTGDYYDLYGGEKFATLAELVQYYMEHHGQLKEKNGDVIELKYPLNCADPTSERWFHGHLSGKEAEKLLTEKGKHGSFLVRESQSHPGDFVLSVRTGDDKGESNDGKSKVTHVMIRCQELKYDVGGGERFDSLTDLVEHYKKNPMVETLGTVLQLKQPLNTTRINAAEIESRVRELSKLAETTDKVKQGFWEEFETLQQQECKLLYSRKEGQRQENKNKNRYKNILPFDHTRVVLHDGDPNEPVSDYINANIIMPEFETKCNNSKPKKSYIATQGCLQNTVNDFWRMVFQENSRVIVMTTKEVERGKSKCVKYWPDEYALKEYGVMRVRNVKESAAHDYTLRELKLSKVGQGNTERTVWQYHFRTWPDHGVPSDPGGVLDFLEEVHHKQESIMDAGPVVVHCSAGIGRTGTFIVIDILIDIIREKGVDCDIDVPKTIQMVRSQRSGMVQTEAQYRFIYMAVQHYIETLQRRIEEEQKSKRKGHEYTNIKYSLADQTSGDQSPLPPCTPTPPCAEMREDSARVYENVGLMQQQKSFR
Method: SHP2 is allosterically activated through binding of bis-tyro syiphorphorylated peptides to its Src Homology 2 (SH2) domains. The latter activation step leads to the release of the auto-inhibitory interface of SHP2, which in turn renders the SHP2 PTP active and available for substrate recognition and reaction catalysis. The catalytic activity of SHP2 was monitored using the surrogate substrate DiFMUP in a prompt fluorescence assay format. Specifically, the phosphatase reactions were performed at room temperature in 384-well black polystyrene plate, flat bottom, low flange, non-binding surface (Corning, Cat #3575) using a final reaction volume of 20 μL and the following assay buffer conditions: 60 mM HEPES, pH 7.2, 75 mM NaCl, 75 mM KCl, 1 mM EDTA, 0.01% Brij-35, 5 mM DTT, and 10% DMSO (final). The inhibition of SHP2 from the tested compounds (final concentrations varying from 0.003-100 μM) was monitored using an assay in which 0.5 nM of SHP2 (PTPN11/SHP2-FL, RBC produced, no cat #) was incubated with 0.35 μM of the peptide H2NLN(pY)IDLDLV(dPEG8)LST(pY)ASINFQK-amide. After 20 minutes of incubation at room temperature, the surrogate substrate DiFMUP (6,8-difluoro-7-hydroxy-4-methylcoumarin, Invitrogen, cat #D6567, 100 μM final concentration) was added to the reaction. The fluorescence signal was monitored using a microplate reader (Envision, Perkin-Elmer) using excitation and emission wavelengths of 355 nm and 460 nm, respectively. The inhibitor dose response curves were analyzed using normalized IC50 regression curve fitting with control based normalization.
The IC50 values of for Compounds disclosed are listed in Table 2, A: ≤10 nM; B: >10 nM and ≤100 nM; C: >100 nM and ≤1 uM; and D: >1 μM.

[2] = tested on: MiaPaCa-2 cells; assay: MiaPaCa-2 Cell proliferation assay in 3D culture (CCK8); assay type: cell-based; details: Homo sapiens, MIA PaCa-2, 120 h; 3D spheroid culture, 5 days with compound, CCK8 readout
Method: MiaPaCa-2 Cell proliferation assay in 3D culture. To evaluate cell viability, MiaPaCa-2 cells in logarithmic growth phase were seeded at optimal density and grown in as spheroids. Cells were incubated for 24 hours prior to the addition of different concentrations of the compounds. Cells were cultured with the compounds for 5 days and the cell viability was assessed using CCK8. Briefly, 2500 cells were seeded in round bottom ultra-low attachment 96 well plates (coming) in growth media supplemented with 10% FBS and incubated at 37° C. for 24 hours. The compounds were dissolved in DMSO (Sigma) to obtain 10 mM stock solution. Then the compounds were serially diluted in 3-fold to ten concentrations; 5 μL of the dilution above was transferred to 95 uL culture media to obtain the 50× compound stock solution; 4 uL of the 50× compound above was then transferred to the wells containing cells with 196 μL of the culture medium to obtain the final 1× concentration. The final concentration of DMSO was 0.1%. Spheroid cells were incubated in compounds for 5 days. Then 20 μL WST-8 solution (DOJINDO, Cell Counting KIT-8) was added to each well. The plates were further incubated at 37° C. for 1.5 hours, and then absorbance at 450 nm was measured using a microplate reader. Each compound was tested in triplicate and the IC50 value was calculated using GraphPad Prism.
The IC50 values of for Compounds disclosed are listed in Table 2, A: ≤500 nM; B: >500 nM and ≤5 μM; C: >5 μM and ≤50 μM; and D: >50 μM.

Structure (SMILES) | IC50 [1] [nM] | IC50 [2] [nM]
CC1(CN)CCN(c2cnc(Sc3cccc(C(=O)NS(=O)(=O)c4cccnc4)c3Cl)cn2)CC1 [Example 24, 3-((5-(4-(aminomethyl)-4-methylpiperidin-1-yl)pyrazin-2-yl)thio)-2-chloro-N-(pyridin-3-ylsulfonyl)benzamide] | ≤ 10 | 500 to 5000
CC1(CN)CCN(c2cnc(Sc3cccc(NC(=O)NS(=O)(=O)C4CC4)c3Cl)cn2)CC1 [Example 32, N-((3-((5-(4-(aminomethyl)-4-methylpiperidin-1-yl)pyrazin-2-yl)thio)-2-chlorophenyl)carbamoyl)cyclopropanesulfonamide] | ≤ 10 | ≤ 500
CC1(N)CCN(c2cnc(Sc3cccc(C(=O)NS(=O)(=O)c4ccccc4)c3Cl)cn2)CC1 [Example 3, 3-((5-(4-amino-4-methylpiperidin-1-yl)pyrazin-2-yl)thio)-2-chloro-N-(phenylsulfonyl)benzamide] | ≤ 10 | 500 to 5000
CC1(CN)CCN(c2cnc(Sc3cccc(C(=O)NS(=O)(=O)C4CCCCC4)c3Cl)cn2)CC1 [Example 27, 3-((5-(4-(aminomethyl)-4-methylpiperidin-1-yl)pyrazin-2-yl)thio)-2-chloro-N-(cyclohexylsulfonyl)benzamide] | ≤ 10 | ≤ 500
CC1(N)CCN(c2cnc(Sc3cccc(C(=O)NS(=O)(=O)C4CCCCC4)c3Cl)cn2)CC1 [Example 20, 3-((5-(4-amino-4-methylpiperidin-1-yl)pyrazin-2-yl)thio)-2-chloro-N-(cyclohexylsulfonyl)benzamide] | 10 to 100 | 5000 to 50000
CC1(CN)CCN(c2cnc(Sc3cccc(NC(=O)NS(=O)(=O)c4ccccc4)c3Cl)cn2)CC1 [Example 2, N-((3-((5-(4-(aminomethyl)-4-methylpiperidin-1-yl)pyrazin-2-yl)thio)-2-chlorophenyl)carbamoyl)benzenesulfonamide] | ≤ 10 | ≤ 500
CC1(CN)CCN(c2cnc(Sc3cccc(C(=O)NS(=O)(=O)c4ccccn4)c3Cl)c(N)n2)CC1 [Example 35, 3-((3-amino-5-(4-(aminomethyl)-4-methylpiperidin-1-yl)pyrazin-2-yl)thio)-2-chloro-N-(pyridin-2-ylsulfonyl)benzamide] | ≤ 10 | ≤ 500
CC1(CN)CCN(c2cnc(Sc3cccc(C(=O)NS(=O)(=O)c4ccncc4)c3Cl)cn2)CC1 [Example 28, 3-((5-(4-(aminomethyl)-4-methylpiperidin-1-yl)pyrazin-2-yl)thio)-2-chloro-N-(pyridin-4-ylsulfonyl)benzamide] | ≤ 10 | 500 to 5000
CC1(CN)CCN(c2cnc(Sc3cccc(C(=O)NS(C)(=O)=O)c3Cl)cn2)CC1 [Example 26, 3-((5-(4-(aminomethyl)-4-methylpiperidin-1-yl)pyrazin-2-yl)thio)-2-chloro-N-(methylsulfonyl)benzamide] | ≤ 10 | ≤ 500
CC1(CN)CCN(c2cnc(Sc3cccc(C(=O)NS(=O)(=O)c4ccccn4)c3Cl)cn2)CC1 [Example 22, 3-((5-(4-(aminomethyl)-4-methylpiperidin-1-yl)pyrazin-2-yl)thio)-2-chloro-N-(pyridin-2-ylsulfonyl)benzamide] | ≤ 10 | ≤ 500
CC1(CN)CCN(c2cnc(Sc3cccc(C(=O)NS(=O)(=O)c4ccccc4)c3Cl)cn2)CC1 [Example 21, 3-((5-(4-(aminomethyl)-4-methylpiperidin-1-yl)pyrazin-2-yl)thio)-2-chloro-N-(phenylsulfonyl)benzamide] | ≤ 10 | ≤ 500
C[C@@H]1OCC2(CCN(c3cnc(Sc4cncc(NC(=O)NS(=O)(=O)c5ccccc5)c4Cl)cn3)CC2)[C@@H]1N [Example 60, N-((5-((5-((3S,4S)-4-amino-3-methyl-2-oxa-8-azaspiro[4.5]decan-8-yl)pyrazin-2-yl)thio)-4-chloropyridin-3-yl)carbamoyl)benzenesulfonamide] |  | 500 to 5000
C[C@@H]1OCC2(CCN(c3cnc(Sc4cccc(NC(=O)NS(=O)(=O)c5cccc(F)c5)c4Cl)cn3)CC2)[C@@H]1N [Example 62, N-((3-((5-((3S,4S)-4-amino-3-methyl-2-oxa-8-azaspiro[4.5]decan-8-yl)pyrazin-2-yl)thio)-2-chlorophenyl)carbamoyl)-3-fluorobenzenesulfonamide] |  | ≤ 500

The remaining lines, values ahead:

IC50 [1] [nM] | IC50 [2] [nM] | Structure (SMILES)
10 to 100 | 500 to 5000 | CC1(CN)CCN(c2cnc(Sc3cccc(C(=O)NS(=O)(=O)C4CC4)c3Cl)c(N)n2)CC1 [Example 36, 3-((3-amino-5-(4-(aminomethyl)-4-methylpiperidin-1-yl)pyrazin-2-yl)thio)-2-chloro-N-(cyclopropylsulfonyl)benzamide]
10 to 100 | 5000 to 50000 | CC1(CN)CCN(c2cnc(Sc3cccc(C(=O)NS(C)(=O)=O)c3Cl)c(N)n2)CC1 [Example 37, 3-((3-amino-5-(4-(aminomethyl)-4-methylpiperidin-1-yl)pyrazin-2-yl)thio)-2-chloro-N-(methylsulfonyl)benzamide]
≤ 10 | ≤ 500 | CC1(CN)CCN(c2cnc(Sc3cccc(NC(=O)NS(C)(=O)=O)c3Cl)c(N)n2)CC1 [Example 40, N-((3-((3-amino-5-(4-(aminomethyl)-4-methylpiperidin-1-yl)pyrazin-2-yl)thio)-2-chlorophenyl)carbamoyl)methanesulfonamide]
≤ 10 | ≤ 500 | CC1(N)CCN(c2cnc(Sc3cccc(NC(=O)NS(=O)(=O)c4ccccc4)c3Cl)c(N)n2)CC1 [Example 4, N-((3-((3-amino-5-(4-amino-4-methylpiperidin-1-yl)pyrazin-2-yl)thio)-2-chlorophenyl)carbamoyl)benzenesulfonamide]
≤ 10 | ≤ 500 | CC1(CN)CCN(c2cnc(Sc3cccc(NC(=O)NS(C)(=O)=O)c3Cl)cn2)CC1 [Example 29, N-((3-((5-(4-(aminomethyl)-4-methylpiperidin-1-yl)pyrazin-2-yl)thio)-2-chlorophenyl)carbamoyl)methanesulfonamide]
≤ 10 | 5000 to 50000 | CC1(CN)CCN(c2cnc(Sc3cccc(NC(=O)NS(=O)(=O)c4ccncc4)c3Cl)c(N)n2)CC1 [Example 41, N-((3-((3-amino-5-(4-(aminomethyl)-4-methylpiperidin-1-yl)pyrazin-2-yl)thio)-2-chlorophenyl)carbamoyl)pyridine-4-sulfonamide]
≤ 10 | ≤ 500 | CC1(CN)CCN(c2cnc(Sc3cccc(NC(=O)NS(=O)(=O)C4CCCC4)c3Cl)c(N)n2)CC1 [Example 42, N-((3-((3-amino-5-(4-(aminomethyl)-4-methylpiperidin-1-yl)pyrazin-2-yl)thio)-2-chlorophenyl)carbamoyl)cyclopentanesulfonamide]
